Experiments:
Format in all cases: cell-based, human
[1] = test system: FTD affected fibroblasts; assay: Stress granule assay in FTD affected fibroblasts (TDP-43 / HuR immunostaining after arsenite stress); settings: vehicle (DMSO) alone set at 100, lower = fewer TDP-43 aggregates; for activity at 1 µM: Homo sapiens, Fibroblast, 1 μM compound, read-out: Normalized average number of TDP-43 positive HuR aggregates per cell at 1 μM; for Normalized average number of TDP-43 positive HuR aggregates per cell at 1.5 μM: 1.5 μM compound
Description: In this assay, TDP-43 aggregates in stress granules were quantified after 24 hrs of drug treatment followed by 90 minutes of 100 μM arsenite stress.
On day 1 20,000 patient derived fibroblasts per well were seeded in a 24 well glass bottom plate or 6000 cells per well in a 96 well plate. On day 2 compounds were added at the desired final concentration in fresh media to the respective wells. On day 3 sodium arsenite was added at a final concentration of 500 μM. Incubated at 37° C. for 60 mins. On day 9 wells were washed with PBS and fixed cells using 4% para formaldehyde (in PBS, prepared freshly, methanol free) for 15 mins at room temperature. Washed with PBS, blocked and permeabilized cells with 1% BSA+1% saponin (prepared in PBS) for 1 hour. For Immunostaining primary antibodies were made in 1% BSA (in PBS) and incubated overnight at 4° C. Rabbit polyclonal TDP-43 C-terminal antibody (Proteintech 12892-1-AP)-1:350; mouse monoclonal HuR antibody (Santa Cruz sc-5261)-1:500. On the next day, added the following secondary antibodies Alexa 594 anti-rabbit (Thermofisher Scientific) and Alexa 488 anti-mouse (Thermofisher Scientific) (1:500) in 1% BSA (in PBS) and kept in dark for 1-2 hours at room temperature. Washed and added DAPI in PBS for nuclear staining. The images were analyzed by the open source image analysis software CellProfiler 2.1.1 (offered by Broad Institute of Harvard and MIT—www.cellprofiler.org). This software contains various modules which can be used to analyze images in different ways.
The lower the number, the fewer the TDP-43 aggregates compared to vehicle (DMSO) alone, which is set at 100.

[2] = test system: Fibroblast from FTD affected individual; assay: Nucleocytoplasmic assay (NCA) in patient fibroblast, fibroblast from FTD affected individual; settings: compound at 1 μM; DMSO-treated cell set as 100
Description: (§1) Skin-derived fibroblasts cells from Amnyotrophic Lateral Sclerosis (ALS) and Frontotemporal Degeneration (FTD) patients or affected individual acquired from the National Institute of Neurological Disorders and Stroke (NINDS #ND32947, ND41006, ND42717) were grown in HyClone DMEM High Glucose (GE Healthcare Life Sciences) supplemented with 15% FBS and 1% NEAA (Non-Essential Amino Acids), at 37° C. in a humidified atmosphere of 5% CO2. On day 1600 cells per well were seeded in a 96 well glass bottom plate or 1200 cells per well in a 24 well glass bottom plate. Incubated for 4 days, at 37° C. in a humidified atmosphere of 5% CO2, allowed cells to grow for 4 days. On day added compounds including vehicle control at the desired final concentration in fresh media to the respective wells, allowed cells to grow for an additional 4 days. On day 9 washed wells with PBS and fixed cells using 4% para formaldehyde (in PBS, prepared freshly, methanol free) for 15 mins at room temperature. Washed with PBS, blocked and permeabilized cells with 1% BSA+1% saponin (prepared in PBS) for 1 hour. For immunostaining the following primary antibodies were added in 1% BSA (in PBS) and incubated overnight at 4° C. Rabbit polyclonal TDP-43 C-terminal antibody (Proteintech 12892-1-AP)-1:350; mouse monoclonal HuR antibody (Santa Cruz sc-5261)-1:500. On the next day, added the following secondary antibodies Alexa 594 anti-rabbit (Thermofisher Scientific) and Alexa 488 anti-mouse (Thermofisher Scientific) (1:500) in 1% BSA (in PBS) and kept it in dark for 1-2 hours at room temperature. Wash and add DAPI in PBS for nuclear staining.
(§2) The immuno-stained cells were imaged with Nikon Ti inverted fluorescence microscope having CSU-22 spinning disk confocal and EMCCD camera. Plan Apo 20×/0.75 objective and NIS-Elements AR software were used for image acquisition. At least 15 images per well were taken. The exposure times for TDP-43 and HuR remained constant across one experiment. Each image acquired (in .nd format) was exported into three individual channel images (for DAPI, TDP-43, HuR) in .tiff format. The images were analyzed by the open source image analysis software Cell Profiller to calculate the signal intensities of TDP-43 present in the nucleus and cytoplasm in each cell. The DAPI image was used to count the total number of cells. The TDP-43 and HuR images are used to count the number of cells containing TDP-43 and/or HuR nuclear staining.
(§3) The nucleus/cytoplasm ratio of intensities of TDP-43 in each compound-treated (at 1 μM) cells comparing to DMSO-treated cell (which is set as 100) were shown.

[3] = test system: Mutant VCP fibroblast; assay: Nucleocytoplasmic assay (NCA) in patient fibroblast, mutant VCP fibroblast; settings: compound at 1 μM; DMSO-treated cell set as 100
Description: as §1, §2, §3

[4] = test system: Mutant TDP-43 fibroblast; assay: Nucleocytoplasmic assay (NCA) in patient fibroblast, mutant TDP-43 fibroblast; settings: compound at 1 μM; DMSO-treated cell set as 100
Description: as §1, §2, §3

## COc1cc2c(cc1OCc1ccccc1)CCNC2/C=C/c1cnc2ncccn12 (centres unmarked) [AA, (E)-6-(benzyloxy)-1-(2-(imidazo[1,2-a]pyrimidin-3-yl)vinyl)-7-methoxy-1,2,3,4-tetrahydroisoquinoline]
[1]
  activity at 1 µM: 85%

## COc1cc2c(cc1OCc1ccccc1)CCNC2/C=C/c1cnc2ncc(F)cn12 (centres unmarked) [AC, (E)-6-(benzyloxy)-1-(2-(6-fluoroimidazo[1,2-a]pyrimidin-3-yl)vinyl)-7-methoxy-1,2,3,4-tetrahydroisoquinoline]
[1]
  activity at 1 µM: 85.8%

## COc1cc2c(cc1OCc1ccccc1)CCNC2/C=C/c1cnc2ncc(C(F)(F)F)cn12 (centres unmarked) [AD, (E)-6-(benzyloxy)-7-methoxy-1-(2-(6-(trifluoromethyl)imidazo[1,2-a]pyrimidin-3-yl)vinyl)-1,2,3,4-tetrahydroisoquinoline]
[1]
  Normalized average number of TDP-43 positive HuR aggregates per cell at 1.5 μM: 71.00
  activity at 1 µM: 83%

## COc1cnc2ncc(/C=C/C3NCCc4cc(OCc5ccccc5)c(OC)cc43)n2c1 (centres unmarked) [AE, (E)-6-(benzyloxy)-7-methoxy-1-(2-(6-methoxyimidazo[1,2-a]pyrimidin-3-yl)vinyl)-1,2,3,4-tetrahydroisoquinoline]
[1]
  Normalized average number of TDP-43 positive HuR aggregates per cell at 1.5 μM: 73.75

## COc1cc2c(cc1OCc1ccccc1)CCNC2/C=C/c1cnc2ncc(C)cn12 (centres unmarked) [AF, (E)-6-(benzyloxy)-7-methoxy-1-(2-(6-methylimidazo[1,2-a]pyrimidin-3-yl)vinyl)-1,2,3,4-tetrahydroisoquinoline]
[1]
  Normalized average number of TDP-43 positive HuR aggregates per cell at 1.5 μM: 65.5

## CCOC(=O)c1cnc2ncc(/C=C/C3NCCc4cc(OCc5ccccc5)c(OC)cc43)n2c1 (centres unmarked) [AG, Ethyl (E)-3-(2-(6-(benzyloxy)-7-methoxy-1,2,3,4-tetrahydroisoquinolin-1-yl)vinyl)imidazo[1,2-a]pyrimidine-6-carboxylate]
[1]
  activity at 1 µM: 87%

## COc1cc2c(cc1OCc1ccccc1)CCNC2/C=C/c1cnc2ncc(C(=O)O)cn12.Cl (centres unmarked) [AH, (E)-3-(2-(6-(benzyloxy)-7-methoxy-1,2,3,4-tetrahydroisoquinolin-1-yl)vinyl)imidazo[1,2-a]pyrimidine-6-carboxylic acid]
[1]
  Normalized average number of TDP-43 positive HuR aggregates per cell at 1.5 μM: 71.4

## COc1cc(C)c(/C=C/C2NCCc3cc(OCc4ccccc4)c(OC)cc32)cc1OC (centres unmarked) [Example 1, 6-(benzyloxy)-1-[(E)-2-(4,5-dimethoxy-2-methylphenyl)ethenyl]-7-methoxy-1,2,3,4-tetrahydroisoquinoline]
[2]
  nucleus/cytoplasm ratio of intensities of TDP-43, Fibroblast from FTD affected individual: 148
[3]
  nucleus/cytoplasm ratio of intensities of TDP-43, Mutant VCP fibroblast: 153
[1]
  activity at 1 µM: 67%
[4]
  nucleus/cytoplasm ratio of intensities of TDP-43, Mutant TDP-43 fibroblast: 147

## COc1cc2c(cc1OCc1ccccc1)CCNC2/C=C/c1cc2c(cc1C)OCCO2 (centres unmarked) [Example 4, 6-(benzyloxy)-7-methoxy-1-[(E)-2-(7-methyl-2,3-dihydro-1,4-benzodioxin-6-yl)ethenyl]-1,2,3,4-tetrahydroisoquinoline]
[1]
  activity at 1 µM: 70.9%
[4]
  nucleus/cytoplasm ratio of intensities of TDP-43, Mutant TDP-43 fibroblast: 130

## COc1cc2c(cc1OCc1ccccc1)CCNC2/C=C/c1cc2c(cc1C)OCO2 (centres unmarked) [Example 5, 6-(benzyloxy)-7-methoxy-1-[(E)-2-(6-methyl-2H-1,3-benzodioxol-5-yl)ethenyl]-1,2,3,4-tetrahydroisoquinoline]
[2]
  nucleus/cytoplasm ratio of intensities of TDP-43, Fibroblast from FTD affected individual: 139
[3]
  nucleus/cytoplasm ratio of intensities of TDP-43, Mutant VCP fibroblast: 179
[1]
  activity at 1 µM: 83.3%
[4]
  nucleus/cytoplasm ratio of intensities of TDP-43, Mutant TDP-43 fibroblast: 137

## COc1cnc2c(c1)c(/C=C/C1NCCc3cc(OCc4ccccc4)c(OC)cc31)cn2C (centres unmarked) [Example 7, 6-(benzyloxy)-7-methoxy-1-[(E)-2-(5-methoxy-1-methyl-1H-pyrrolo[2,3-b]pyridin-3-yl)ethenyl]-1,2,3,4-tetrahydroisoquinoline]
[2]
  nucleus/cytoplasm ratio of intensities of TDP-43, Fibroblast from FTD affected individual: 175
[3]
  nucleus/cytoplasm ratio of intensities of TDP-43, Mutant VCP fibroblast: 191
[1]
  activity at 1 µM: 40%
[4]
  nucleus/cytoplasm ratio of intensities of TDP-43, Mutant TDP-43 fibroblast: 143

## COc1cc2c(cc1OCc1ccccc1)CCNC2/C=C/c1ccc(-c2cncnc2)cc1Cl (centres unmarked) [Example 9, 6-(benzyloxy)-1-{(E)-2-[2-chloro-4-(pyrimidin-5-yl)phenyl]ethenyl}-7-methoxy-1,2,3,4-tetrahydroisoquinoline]
[3]
  nucleus/cytoplasm ratio of intensities of TDP-43, Mutant VCP fibroblast: 200

## COc1cc2c(cc1OCc1ccccc1)CCNC2/C=C/c1cn(C)c2nccc(OC)c12 (centres unmarked) [Example 26, 6-(benzyloxy)-7-methoxy-1-[(E)-2-(4-methoxy-1-methyl-1H-pyrrolo[2,3-b]pyridin-3-yl)ethenyl]-1,2,3,4-tetrahydroisoquinoline]
[2]
  nucleus/cytoplasm ratio of intensities of TDP-43, Fibroblast from FTD affected individual: 146
[3]
  nucleus/cytoplasm ratio of intensities of TDP-43, Mutant VCP fibroblast: 256
[1]
  activity at 1 µM: 59%

From patent publication US20230037538A1, “ANTI-ALS COMPOUNDS” (Takeda Pharmaceutical Company Limited, priority 2021, published 2023)
